Measured values as given in PMC11443518, “Undescribed Amaryllidaceae Alkaloids from Zephyranthes citrina and Their Cytotoxicity” (Journal of Natural Products, 2024).
Where two headings read alike, the source gives them in different places.

Columns and labels:
[1] = test system: MCF-7 (breast adenocarcinoma); experiment: WST-1 cell proliferation assay, cytotoxicity screening; assay type: cell-based, human; details: Homo sapiens, read-out: growth percent (GP) MCF-7
Excerpt: (§1) Selected human tumor and nontumor cell lines Jurkat (acute T-cell leukemia), MOLT-4 (acute lymphoblastic leukemia), A549 (lung carcinoma), HT-29 (colorectal adenocarcinoma), PANC-1 (pancreas epithelioid carcinoma), A2780 (ovarian carcinoma), HeLa (cervix adenocarcinoma), MCF-7 (breast adenocarcinoma), SAOS-2 (osteosarcoma) and MRC-5 (nontumor lung fibroblasts) were purchased from European Collection of Authenticated Cell Cultures (ECACC, Salisbury, UK) and cultured according to the provider’s culture method guidelines. […] The cells in low passage number (nontumor primary cell line MRC-5 was used for a maximum of 10 passages and cancer cell lines were used for a maximum of 20 passages) and in an exponential growth phase were used for this study.
(§2) Each cell line was seeded at a previously established optimal density (1 × 10^3 to 50 × 10^3 cells per well) in a 96-well plate (TPP, Trasadingen, Switzerland) and cells were allowed to settle overnight. During screening tests for cytotoxicity, cells were treated with alkaloids at a final concentration of 10 μM for 48 h. Doxorubicin (Sigma-Aldrich, St. Louis, USA), at a concentration of 1 μM, was used as a positive control. At the end of the culture period, the WST-1 proliferation assay (Roche, Basel, Switzerland) was performed according to the manufacturer’s protocol. The absorbance was determined using a Tecan Spark microplate reader (Tecan, Männedorf, Switzerland). Each value is the mean of three independent experiments and represents the percentage of the proliferation of control, nontreated cells (100%). The growth percent (GP) value as the mean of the proliferation decrease was calculated for each cell line and derivative tested.

[2] = test system: MOLT-4 (acute lymphoblastic leukemia); experiment: as above; assay type: cell-based, human; details: Homo sapiens, read-out: growth percent (GP) MOLT-4
Excerpt: as §1, §2

[3] = test system: HeLa (cervix adenocarcinoma); experiment: as above; assay type: cell-based; details: Homo sapiens, 48 h, read-out: growth percent (GP) HeLa
Excerpt: as §1, §2

[4] = test system: PANC-1 (pancreas epithelioid carcinoma); experiment: as above; assay type: cell-based; details: Homo sapiens, read-out: growth percent (GP) PANC-1
Excerpt: as §1, §2

[5] = test system: A2780 (ovarian carcinoma); experiment: as above; assay type: cell-based; details: Homo sapiens, read-out: growth percent (GP) A2780
Excerpt: as §1, §2

[6] = test system: Jurkat (acute T-cell leukemia); experiment: as above; assay type: cell-based; details: Homo sapiens, 48 h, read-out: growth percent (GP) Jurkat
Excerpt: as §1, §2

[7] = test system: A549 (lung carcinoma); experiment: as above; assay type: cell-based; details: Homo sapiens, read-out: growth percent (GP) A549
Excerpt: as §1, §2

[8] = test system: SAOS-2 (osteosarcoma); experiment: as above; assay type: cell-based; details: Homo sapiens, read-out: growth percent (GP) SAOS-2
Excerpt: as §1, §2

[9] = test system: HT-29 (colorectal adenocarcinoma); experiment: as above; assay type: cell-based; details: Homo sapiens, read-out: growth percent (GP) HT-29
Excerpt: as §1, §2

[10] = test system: nine human tumor and one nontumor cell lines; experiment: Cytotoxicity screening across the whole panel of cell lines; assay type: cell-based; details: Homo sapiens, read-out: GP value across the tested cell lines
Excerpt: Concerning the cytotoxicity of alkaloids isolated from Z. citrina, initially, Prakash and Vedanayaki investigated the MeOH extract of the bulbs for its in vitro cytotoxic activity using the MTT assay against three human cancer cell lines from different tissue origins: cervical cancer (HeLa), breast cancer (MCF-7), and oral squamous carcinoma (SCC-9). […] In this context, and to assess potential negative effects on human cell cultures, compounds 1, and 3–27 were screened in our study for cytotoxicity using a 10 μM single-dose regimen. The results were compared with those using the clinically approved antineoplastic agent doxorubicin at 1 μM. The effect on cell growth was investigated on nine human tumor and one nontumor cell lines, namely Jurkat (acute T-cell leukemia), MOLT-4 (acute lymphoblastic leukemia), A549 (lung carcinoma), HT-29 (colorectal adenocarcinoma), PANC-1 (pancreas epithelioid carcinoma), A2780 (ovarian carcinoma), HeLa (cervix adenocarcinoma), MCF-7 (breast adenocarcinoma), SAOS-2 (osteosarcoma) and MRC-5 (nontumor lung fibroblasts). […] No toxicity is valuable information, especially for compound 18, as it is a potent inhibitor of hAChE and hBChE.[27]
Selected human tumor and nontumor cell lines Jurkat (acute T-cell leukemia), MOLT-4 (acute lymphoblastic leukemia), A549 (lung carcinoma), HT-29 (colorectal adenocarcinoma), PANC-1 (pancreas epithelioid carcinoma), A2780 (ovarian carcinoma), HeLa (cervix adenocarcinoma), MCF-7 (breast adenocarcinoma), SAOS-2 (osteosarcoma) and MRC-5 (nontumor lung fibroblasts) were purchased from European Collection of Authenticated Cell Cultures (ECACC, Salisbury, UK) and cultured according to the provider’s culture method guidelines. All cell lines were maintained at 37 °C in a humidified 5% carbon dioxide and 95% air incubator. The cells in low passage number (nontumor primary cell line MRC-5 was used for a maximum of 10 passages and cancer cell lines were used for a maximum of 20 passages) and in an exponential growth phase were used for this study.
as §2

[11] = test system: MRC-5 (nontumor lung fibroblasts); experiment: WST-1 cell proliferation assay, cytotoxicity screening; assay type: cell-based; details: Homo sapiens, read-out: growth percent (GP) MRC-5
Excerpt: as §1, §2

[12] = MCF7, c = 10 μM, 48 h, % of proliferation of nontreated control
[13] = MOLT-4, c = 10 μM, 48 h, % of proliferation of nontreated control
[14] = c = 10 μM, % of proliferation of nontreated control
[15] = PANC-1, c = 10 μM, 48 h, % of proliferation of nontreated control
[16] = A2780, c = 10 μM, 48 h, % of proliferation of nontreated control
[17] = A549, c = 10 μM, 48 h, % of proliferation of nontreated control
[18] = SAOS-2, c = 10 μM, 48 h, % of proliferation of nontreated control
[19] = HT-29, c = 10 μM, 48 h, % of proliferation of nontreated control
[20] = 10 μM single dose, 48-h interval, all tested cell lines

Structure (SMILES) | activity at 10 µM ([1]; MCF7, 48 h) [%] | activity at 10 µM ([2]; MOLT-4, 48 h) [%] | activity at 10 µM [3] [%] | activity at 10 µM ([4]; PANC-1, 48 h) [%] | activity at 10 µM ([5]; A2780, 48 h) [%] | activity at 10 µM [6] [%] | activity at 10 µM ([7]; A549, 48 h) [%] | activity at 10 µM ([8]; SAOS-2, 48 h) [%] | activity at 10 µM ([9]; HT-29, 48 h) [%] | activity at 10 µM ([10]; 48 h) [%] | activity at 10 µM [1, 12] [%] | activity at 10 µM [2, 13] [%] | activity at 10 µM [3, 14] [%] | activity at 10 µM [4, 15] [%] | activity at 10 µM [5, 16] [%] | activity at 10 µM [6, 14] [%] | activity at 10 µM [7, 17] [%] | activity at 10 µM [8, 18] [%] | activity at 10 µM [9, 19] [%] | activity at 10 µM [10, 20] [%] | also measured
COc1ccc2c3c1O[C@H]1C[C@@H](O)CC[C@@]31CCN(C)C2 [Compound 19] | 101 | 105 | 82 | 102 | 92 | 102 | 96 | 97 | 83 | > 50 | – | – | – | – | – | – | – | – | – | – | –
CO[C@@H]1C=C[C@@]23c4cc5c(cc4CO[C@]2(O)CN(C)[C@H]3C1)OCO5 [Compound 20] | 94 | 95 | 84 | 76 | 101 | 93 | 83 | 92 | 57 | > 50 | – | – | – | – | – | – | – | – | – | – | –
COc1cc2c(cc1OC)[C@@H]1[C@H](O)[C@@H](OC)C=C3CCN(C2)[C@H]31 [Compound 23] | – | – | – | – | – | – | – | – | – | – | 114 | 103 | 93 | 97 | 113 | 98 | 93 | 97 | 64 | > 50 | –
CC(=O)O[C@@H]1CC=C2CCN3Cc4cc5c(cc4[C@H]1[C@@H]23)OCO5 [Compound 26] | – | – | – | – | – | – | – | – | – | – | 131 | 119 | 98 | 119 | 141 | 132 | 113 | 95 | 107 | > 50 | –
O[C@H]1[C@H]2c3cc4c(cc3CN3CCC(=C[C@@H]1O)[C@H]23)OCO4 [Compound 27, lycorine] | 27 | 9 | 15 | 36 | 39 | 5 | 27 | 27 | 5 | – | – | – | – | – | – | – | – | – | – | – | activity at 10 µM ([11]; MRC5, 48 h): 25%
COc1cccc2c1C(=O)c1c(O)c3c(c(O)c1C2=O)C[C@@](O)(C(=O)CO)C[C@@H]3O[C@H]1C[C@H](N)[C@H](O)[C@H](C)O1 [doxorubicin, reference compound] | – | – | – | – | – | – | – | – | – | – | – | – | – | – | – | – | – | – | – | – | activity at 1 µM ([1]; MCF7, positive control, c = 1 μM, 48 h): 41%; activity at 1 µM ([2]; MOLT-4, positive control, c = 1 μM, 48 h): 0%; activity at 1 µM ([11]; MRC5, positive control, c = 1 μM, 48 h): 40%; activity at 1 µM ([3]; positive control, c = 1 μM): 7%; activity at 1 µM ([4]; PANC-1, positive control, c = 1 μM, 48 h): 59%; activity at 1 µM ([5]; A2780, positive control, c = 1 μM, 48 h): 5%; activity at 1 µM ([6]; positive control, c = 1 μM): 0%; activity at 1 µM ([7]; A549, positive control, c = 1 μM, 48 h): 66%; activity at 1 µM ([8]; SAOS-2, positive control, c = 1 μM, 48 h): 73%; activity at 1 µM ([9]; HT-29, positive control, c = 1 μM, 48 h): 77%
